Two compounds from patent publication US10597719B2, “Detection kit and simple method for detecting target nucleic acids” (National University Corporation Gunma University, priority 2015, dated 2020) can be followed below.

One may read the Kd as the equilibrium constant for the complex coming apart.

The target of one experiment is 22AG. Nature of the experiment: Fluorescence titration, binding of dye to 22AG. Further details: species or system human. How it is done: (§1) The following six kinds of G4-forming human-derived oligonucleotides were used:
(§2) telomere regions (22AG and 26Tel);
(§3) Each of the eight kinds of oligonucleotides (22AG, 26Tel, 27Myc, 22Kit, 20Src, 18Ras, ssDNA, and dsDNA) was dissolved in the buffer TRS50K, PBS150K, PBS140KM, or PBS153NM at a concentration of 21 μM, and denatured by heating at 95° C. (or at 40° C. for 18Ras) for 0.5 minute using a thermal cycler, followed by cooling the resulting solution to 25° C. at a rate of 0.5° C./minute to allow refolding. Each solution was diluted to an appropriate oligonucleotide concentration, and its aliquots (50 μL each) were incubated at 25° C. for 30 minutes, followed by mixing each aliquot with 20 μL of a solution of a dye (ThT, ThT-DB, or ThT-HE; 10.5 μM) in the buffer TRS50K, PBS150K, PBS140KM, or PBS153NM. These mixtures were incubated at 25° C. for 30 minutes. An emission spectrum of each dye was obtained by excitation at 415 nm and monitoring of fluorescence between 450 nm and 600 nm.
(§4) FIGS. 3-4 to 3-6 show relative fluorescence intensities as the peaks of the emitted light at 485 nm (ThT and ThT-HE) or 500 nm (ThT-DB) with respect to the intensity of the dye that interacted with dsDNA, which was taken as 1. The X-axis represents the oligonucleotide concentration.

In the next experiment the target is 26Tel. Nature of the experiment: Fluorescence titration, binding of dye to 26Tel. Further details: species or system human. As to the method:
as §1, §2, §3, §4

The next experiment addresses 27Myc. The experiment can be described thus: Fluorescence titration, binding of dye to 27Myc. Further details: species or system human. Particulars: for Kd: read-out: Kd 27Mye. As to the method:
as §1
the nuclease-sensitive element region of the c-Myc P1 promoter (27Myc);
as §3, §4

The target of a further experiment is 22Kit. The experiment can be described thus: Fluorescence titration, binding of dye to 22Kit. Further details: species or system human. As to the method: as §1
the 87-nucleotide upstream region of the transcription initiation site of a proto-oncogene encoding tyrosine kinase (22Kit);
as §3, §4

The next experiment has as its target 20Src. The experiment can be described thus: Fluorescence titration, binding of dye to 20Src. Particulars: n.d. cells, read-out: Kd 20Sre. Further details: species or system human. As to the method:
as §1
a proto-oncogene encoding a nonreceptor tyrosine kinase (20Src); and
as §3, §4

The target in another experiment is 18Ras. The experiment can be described thus: Fluorescence titration, binding of dye to 18Ras. Further details: species or system human. As to the method: as §1
the 5′-untranslated region of a human NRAS proto-oncogene transcript (18Ras).
as §3, §4

The target of another experiment is ssDNA. The experiment can be described thus: Fluorescence titration, binding of dye to ssDNA standard. Particulars: n.d. cells. As to the method: (§5) Besides these sequences, the following two kinds of oligonucleotides were used as standards:
(§6) The ssDNA was used as a single-stranded DNA, and the cDNA was used as a double-stranded DNA (dsDNA) by mixing with the ssDNA at a ratio of 1:1.
as §3, §4

The next experiment concerns the target dsDNA. Nature of the experiment: Fluorescence titration, binding of dye to dsDNA standard. Particulars: for Kd: n.d. cells; for emission of fluorescence in the presence of dsDNA: dye 3 μM in PBS153NM, dsDNA 0-15 μM (FIG. 2). As to the method: as §5, §6, §3, §4
The next experiment concerns target G4. The experiment can be described thus: Affinity of dyes to the target G4, overall comparison from Table 1. The class given is binding, human. The settings on record: according to Table 1. How it is done:
as §3, §4

Where two headings read alike, the source gives them in different places. Bounds are passed on as bounds.

Regarding `Cc1ccc2c(c1)sc(-c1ccc(N(C)C)cc1)[n+]2C.[Cl-]` [ThT, thioflavin T, reference compound], the Kd on 22AG (buffer PBS150K) is 7.3 ± 0.3 µM; on 22AG (buffer PBS153NM, n.d. cells) it was more than 40 µM; at 26Tel (buffer PBS150K), 5 ± 0.8 µM; at 26Tel (buffer PBS153NM) it was 25.3 ± 1.5 µM; on 27Myc (buffer PBS150K), 8.7 ± 1 µM; on 27Myc (buffer PBS153NM) it was 7.2 ± 0.6 µM. Moreover, the Kd at 22Kit (buffer PBS150K) is 12.3 ± 1.8 µM; on 22Kit (buffer PBS153NM), 7.2 ± 0.9 µM; at 20Src (buffer PBS150K) it was more than 40 µM; at 20Src (buffer PBS153NM), more than 40 µM; on 18Ras (buffer PBS150K) it was 10.3 ± 3 µM; on 18Ras (buffer PBS153NM) it was 16 ± 4.2 µM. Further, the dissociation constant (Kd) on ssDNA (buffer PBS150K), on ssDNA (buffer PBS153NM), on dsDNA (buffer PBS150K) and on dsDNA (buffer PBS153NM) was more than 40 µM throughout. The “emission of fluorescence in the presence of dsDNA” value in the experiment on dsDNA is on record as “considerable level of emission of fluorescence”.

Take `Cc1ccc2c(c1)sc(-c1ccc(N(C)C)cc1)[n+]2CCO` [ThT-HE]: the Kd on 22AG (buffer PBS150K) was 17.6 ± 3.6 µM; on 22AG (buffer PBS153NM, n.d. cells) it was more than 40 µM; on 26Tel (buffer PBS150K) it was 10.6 ± 2.9 µM; on 26Tel (buffer PBS153NM, n.d. cells), more than 40 µM; at 27Myc (buffer PBS150K), 23.9 ± 1.4 µM; at 27Myc (buffer PBS153NM), 13.7 ± 1.4 µM. In addition, the Kd was 40 ± 9 µM at 22Kit (buffer PBS150K); 12.3 ± 1.8 µM at 22Kit (buffer PBS153NM); more than 40 µM at 20Src (buffer PBS150K); more than 40 µM at 20Src (buffer PBS153NM); 20.9 ± 2.8 µM at 18Ras (buffer PBS150K); 28.5 ± 9.7 µM on 18Ras (buffer PBS153NM). The Kd on ssDNA (buffer PBS150K), at ssDNA (buffer PBS153NM), at dsDNA (buffer PBS150K) and at dsDNA (buffer PBS153NM) was more than 40 µM each time. The “specificity to guanine quadruplex” value in the experiment with 27Myc (27Myc versus dsDNA, PBS153NM (FIG. 2)) is listed as “high specificity to guanine quadruplex”. For the same compound, the “emission of fluorescence in the presence of dsDNA” value in the experiment with dsDNA is “hardly show fluorescence”. For the same compound, in the experiment with target G4, the “affinity to the target G4 compared with ThT” value is “generally lower than affinity of ThT”.
